Measured values published in patent US8163793B2, “Proline derivatives” (Hoffman-La Roche Inc., priority 2009, dated 2012).

Key:
Cat L = Cat L (UniProt P07711); test: Cathepsin enzyme inhibition assay (fluorogenic peptide substrate Z-Val-Val-Arg-AMC), Cathepsin L; assay type: biochemical, human and mouse; conditions: enzyme 1 nM, substrate 20 μM, pH 6.5; read-out: CatL IC50
How it was run: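 Fluorogenic cleavage of Z-Val-Val-Arg-AMC (20 μM) by 1 nM Cat L was monitored at ex 360/em 465 nm for 20 min, the linear phase. The buffer was 100 mM potassium phosphate pH 6.5 with 5 mM EDTA and DTT. IC50 values were derived by standard methods, in μM.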

Cathepsin S = Cathepsin S (UniProt P25774); test: Cathepsin enzyme inhibition assay (fluorogenic peptide substrate Z-Val-Val-Arg-AMC), Cathepsin S; assay type: biochemical, human and mouse; conditions: enzyme 1 nM, substrate 20 μM, pH 6.5; read-out: CatS IC50
How it was run: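 Compounds were combined with 1 nM human or mouse enzyme, and substrate then started the reaction. The buffer was potassium phosphate (100 mM, pH 6.5) containing EDTA-Na 5 mM, Triton X-100 0.001% and […] 5 mM.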

IC50 (Cat L)	IC50 (Cathepsin S)	Structure (SMILES)
23400 nM	0.9 nM	CC(=O)N1C[C@H](S(=O)(=O)c2ccc(N3CCCCC3)cc2Cl)C[C@H]1C(=O)NC1(C#N)CC1 [Example 133, (2S,4R)-1-Acetyl-4-(2-chloro-4-piperidin-1-yl-benzenesulfonyl)-pyrrolidine-2-carboxylic acid (1-cyano-cyclopropyl)-amide formiate]
≥ 25000 nM	6.2 nM	CC(=O)N1C[C@H](S(=O)(=O)c2ccc(F)cc2Cl)C[C@H]1C(=O)NC1(C#N)CC1 [Example 134, (2S,4R)-1-Acetyl-4-(2-chloro-4-fluoro-benzenesulfonyl)-pyrrolidine-2-carboxylic acid (1-cyano-cyclopropyl)-amide]
3150 nM	0.3 nM	N#CC1(NC(=O)[C@@H]2C[C@@H](S(=O)(=O)c3ccc(N4CCCCC4)cc3Cl)CN2C(=O)C2(C(F)(F)F)CC2)CC1 [Example 135, (2S,4R)-4-(2-Chloro-4-piperidin-1-yl-benzenesulfonyl)-1-(1-trifluoromethyl-cyclopropanecarbonyl)-pyrrolidine-2-carboxylic acid (1-cyano-cyclopropyl)-amide]
12600 nM	2.2 nM	N#CC1(NC(=O)[C@@H]2C[C@@H](S(=O)(=O)c3ccc(N4CCC(F)(F)C4)cc3Cl)CN2)CC1 [Example 136, (2S,4R)-4-[2-Chloro-4-(3,3-difluoro-pyrrolidin-1-yl)-benzenesulfonyl]-pyrrolidine-2-carboxylic acid (1-cyano-cyclopropyl)-amide formiate]
≥ 25000 nM	1 nM	COC(=O)c1ccc(C(=O)N2C[C@H](S(=O)(=O)c3ccccc3C(F)(F)F)C[C@H]2C(=O)NCC#N)cc1 [Example 137, 4-[(2S,4R)-2-(Cyanomethyl-carbamoyl)-4-(2-trifluoromethyl-benzenesulfonyl)-pyrrolidine-1-carbonyl]-benzoic acid methyl ester]
28600 nM	3.4 nM	CCN1CCN(c2ccc(S(=O)(=O)[C@@H]3C[C@@H](C(=O)NC4(C#N)CC4)N(C(=O)OC(C)(C)C)C3)c(Cl)c2)CC1 [Example 138, (2S,4R)-4-[2-Chloro-4-(4-ethyl-piperazin-1-yl)-benzenesulfonyl]-2-(1-cyano-cyclopropylcarbamoyl)-pyrrolidine-1-carboxylic acid tert.-butyl ester]
≥ 25000 nM	7.8 nM	CC(C)(C)OC(=O)N1C[C@H](S(=O)(=O)c2ccc(OCCN3CCCCC3)cc2Cl)C[C@H]1C(=O)NC1(C#N)CC1 [Example 139, (2S,4R)-4-[2-Chloro-4-(2-piperidin-1-yl-ethoxy)-benzenesulfonyl]-2-(1-cyano-cyclopropylcarbamoyl)-pyrrolidine-1-carboxylic acid tert.-butyl ester]
24500 nM	5.9 nM	CCN1CCN(c2ccc(S(=O)(=O)[C@H]3CN[C@H](C(=O)NC4(C#N)CC4)C3)c(Cl)c2)CC1 [Example 140, (2S,4R)-4-[2-Chloro-4-(4-ethyl-piperazin-1-yl)-benzenesulfonyl]-pyrrolidine-2-carboxylic acid (1-cyano-cyclopropyl)-amide formiate]
3460 nM	0.6 nM	CCN1CCN(c2ccc(S(=O)(=O)[C@@H]3C[C@@H](C(=O)NC4(C#N)CC4)N(C(=O)C4(C(F)(F)F)CC4)C3)c(Cl)c2)CC1 [Example 141, (2S,4R)-4-[2-Chloro-4-(4-ethyl-piperazin-1-yl)-benzenesulfonyl]-1-(1-trifluoromethyl-cyclopropanecarbonyl)-pyrrolidine-2-carboxylic acid (1-cyano-cyclopropyl)-amide]
2480 nM	0.3 nM	CCN1CCN(c2ccc(S(=O)(=O)[C@@H]3C[C@@H](C(=O)NC4(C#N)CC4)N(C(=O)C4(C(F)(F)F)CC4)C3)c(Cl)c2)CC1 [Example 142, (2S,4R)-4-[2-Chloro-4-(4-ethyl-piperazin-1-yl)-benzenesulfonyl]-1-(1-trifluoromethyl-cyclopropanecarbonyl)-pyrrolidine-2-carboxylic acid (1-cyano-cyclopropyl)-amide formiate]
28100 nM	4.3 nM	CCN1CCN(c2ccc(S(=O)(=O)[C@@H]3C[C@@H](C(=O)NC4(C#N)CC4)N(C=O)C3)c(Cl)c2)CC1 [Example 143, (2S,4R)-4-[2-Chloro-4-(4-ethyl-piperazin-1-yl)-benzenesulfonyl]-1-formyl-pyrrolidine-2-carboxylic acid (1-cyano-cyclopropyl)-amide]
28200 nM	9.7 nM	N#CC1(NC(=O)[C@@H]2C[C@@H](S(=O)(=O)c3ccc(F)cc3Cl)CN2)CC1 [Example 144, (2S,4R)-4-(2-Chloro-4-fluoro-benzenesulfonyl)-pyrrolidine-2-carboxylic acid (1-cyano-cyclopropyl)-amide]
11800 nM	0.6 nM	N#CC1(NC(=O)[C@@H]2C[C@@H](S(=O)(=O)c3ccc(F)cc3Cl)CN2C(=O)C2(C(F)(F)F)CC2)CC1 [Example 145, (2S,4R)-4-(2-Chloro-4-fluoro-benzenesulfonyl)-1-(1-trifluoromethyl-cyclopropanecarbonyl)-pyrrolidine-2-carboxylic acid (1-cyano-cyclopropyl)-amide]
25500 nM	6.4 nM	N#CC1(NC(=O)[C@@H]2C[C@@H](S(=O)(=O)c3ccc(N4CCCCC4)cc3Cl)CN2C=O)CC1 [Example 146, (2S,4R)-4-(2-Chloro-4-piperidin-1-yl-benzenesulfonyl)-1-formyl-pyrrolidine-2-carboxylic acid (1-cyano-cyclopropyl)-amide formiate]
13600 nM	0.4 nM	N#CC1(NC(=O)[C@@H]2C[C@@H](S(=O)(=O)c3ccc(-n4cccn4)cc3Cl)CN2C(=O)C2(C(F)(F)F)CC2)CC1 [Example 147, (2S,4R)-4-(2-Chloro-4-pyrazol-1-yl-benzenesulfonyl)-1-(1-trifluoromethyl-cyclopropanecarbonyl)-pyrrolidine-2-carboxylic acid (1-cyano-cyclopropyl)-amide]
≥ 25000 nM	16 nM	N#CC1(NC(=O)[C@@H]2C[C@@H](S(=O)(=O)c3ccc(-n4cccn4)cc3Cl)CN2C=O)CC1 [Example 148, (2S,4R)-4-(2-Chloro-4-pyrazol-1-yl-benzenesulfonyl)-1-formyl-pyrrolidine-2-carboxylic acid (1-cyano-cyclopropyl)-amide]
8100 nM	0.7 nM	CC(Oc1ccc(S(=O)(=O)[C@@H]2C[C@@H](C(=O)NC3(C#N)CC3)N(C(=O)C3(C(F)(F)F)CC3)C2)c(Cl)c1)C(F)(F)F (stereo partly drawn) [Example 149, (2S,4R)-4-[2-Chloro-4-(2,2,2-trifluoro-1-methyl-ethoxy)-benzenesulfonyl]-1-(1-trifluoromethyl-cyclopropanecarbonyl)-pyrrolidine-2-carboxylic acid (1-cyano-cyclopropyl)-amide]
27900 nM	1.7 nM	CC(Oc1ccc(S(=O)(=O)[C@@H]2C[C@@H](C(=O)NC3(C#N)CC3)N(C=O)C2)c(Cl)c1)C(F)(F)F (stereo partly drawn) [Example 150, (2S,4R)-4-[2-Chloro-4-(2,2,2-trifluoro-1-methyl-ethoxy)-benzenesulfonyl]-1-formyl-pyrrolidine-2-carboxylic acid (1-cyano-cyclopropyl)-amide]
